Test results taken from patent US9145382B2, “Organic compound and electrochromic device using the same” (CANON KABUSHIKI KAISHA, priority 2014, dated 2015).

How the values were obtained:
Format in all cases: physicochemical
[1] = Measurement of solubility in propylene carbonate; conditions: for solubility: organic solvent or mixture
From the text: [Measurement of Solubility in Propylene Carbonate]
Note that propylene carbonate is a solvent contained in the electrochromic layer constituting the EC device. Further, Ref-1 is a compound in which methyl groups having no ethylene oxide chains are substituted at the 3-position and the 4-position of the thiophene ring, and substituents (substituents corresponding to A1 and A2 in general formula [1]) at the ortho positions of the phenyl group bonded to the thiophene ring are hydrogen atoms (no substitution).

[2] = Durable stability against oxidation-reduction cycle (square-wave potential program, CV oxidation peak current); conditions: for Durability evaluation: change in oxidation peak current (CV) before and after 10000 oxidation-reduction cycles, 1.0×10^−4 mol/L in 0.1 mol/L tetrabutylammonium perchlorate in dichloroethane
Method: The durable stability against the oxidation-reduction cycle of the organic EC compound according to the present invention was evaluated. Specifically, the durability against repetition of an oxidation-reduction was evaluated using the illustrated compound A-1, the illustrated compound A-3 and Ref-1 as evaluation targets.
The measurement of durability against repetition of an oxidation-reduction was performed using a solution prepared by dissolving each compound in a predetermined solvent as a target sample, using a measuring apparatus provided with a work electrode, a counter electrode and a reference electrode. Here, the electrodes provided in the measuring apparatus and the solvent used will be shown below.
Work electrode: Glassy carbon
(§1) Counter electrode: Platinum
(§2) Reference electrode: Silver
Supporting electrolyte (solvent): Solution of tetrabutylammonium perchlorate in dichloroethane (0.1 mol/L)
Solution concentration: 1.0×10^−4 mol/L
The above solution was subjected to a square-wave potential program including oxidation at a constant potential and reduction at a constant potential for 10000 times. Here, the oxidation at a constant potential is a process of applying a potential equal to or higher than the oxidation potential of a target compound to the above solution for 10 seconds, and the reduction at a constant potential is a process of applying a potential of 0 V based on the reference electrode (Ag/Ag^+) to the above solution for 10 seconds.
The durability against repetition of an oxidation-reduction was evaluated based on the change in the amount of oxidation peak current in cyclic voltammetry (CV) measurement before and after the oxidation-reduction cycles for 10000 times. Specifically, when the rate of change in the amount of oxidation peak current was less than 20%, the durability was evaluated as Good, and when the rate of change was 20% or more, the durability was evaluated as Poor.

[3] = Absorption spectrum in the neutral (bleached) state, UV-visible spectrophotometer; conditions: in chloroform
Method: The illustrated compound A-1 obtained was dissolved in chloroform, and the resulting solution was measured using an ultraviolet and visible spectrophotometer (V-560 manufactured by JASCO Corporation). As a result, an absorption spectrum illustrated in FIG. 6 was obtained.
Solutions prepared by dissolving compounds synthesized in Examples in chloroform were measured for the absorption spectra in the neutral state (bleached state) using an ultraviolet and visible spectrophotometer (V-560 manufactured by JASCO Corporation).

[4] = Absorption spectrum in the oxidized (colored) state, oxidation at constant potential; conditions: 5.0×10^−4 mol/L in 0.1 mol/L tetrabutylammonium perchlorate in propylene carbonate
Method: Next, the absorption spectra in the oxidized (colored) state were measured. Specifically, the absorption spectra were measured using a measuring cell provided with a work electrode, a counter electrode, a reference electrode and a liquid tank. Here, the electrodes provided in the measuring cell and the solute and solvent which are contained in the solution charged to the liquid tank will be shown below.
as §1, §2
Solute: Evaluation target compounds (illustrated compounds A-1 and A-3)
Solvent (supporting electrolyte): Solution of tetrabutylammonium perchlorate in propylene carbonate (0.1 mol/L)
(Note that the concentration of the solution charged to the liquid tank is 5.0×10^−4 mol/L.)
A compound was subjected to oxidation at a constant potential by applying a potential equal to or higher than the oxidation potential of the compound using the measuring cell to thereby measure the change in the absorption spectra and transmittance spectra. Here, the absorption peak wavelength in the colored state (oxidized state) and the absorption peak wavelength in the bleached state (neutral state) are shown in the following Table 3.

SMILES	appearance of solution when a concentration of 6 mM was going to be prepared ([1]; 6 mM)	solubility [1] [mM]	Durability evaluation [2]	number of oxidation-reduction cycles after which the amount of oxidation peak current was decreased by 20% ([2]; square-wave potential program, 10 s oxidation / 10 s reduction)	absorption in the visible light region (neutral state) [3]	Neutral absorption λmax ([3]; neutral (bleached) state) [nm]	Oxidized absorption λmax′ [4] [nm]
Cc1c(-c2ccccc2)sc(-c2ccccc2)c1C [Ref-1]	turbid	< 6	Poor (when the rate of change was 20% or more, the durability was evaluated as Poor)	about 2400 times			
COCCOCc1c(-c2c(OC)cccc2OC(C)C)sc(-c2c(OC)cccc2OC(C)C)c1COCCOC [A-1]		≥ 150	Good (when the rate of change in the amount of oxidation peak current was less than 20%, the durability was evaluated as Good)		does not have absorption over the whole visible light region	282.0	415.8
